Data published in patent US10822323B2, “Acid labile surfactants” (Waters Technologies Corporation, priority 2018, dated 2020).
≈ marks a conversion by molar mass, not a printed value.

Assay: Dissolution study of hydrophobic moieties in acetonitrile / 20 mM ammonium bicarbonate buffer solutions
Assay type: physicochemical
Settings: for Observed Solubility: 21° C.; for solubility: 21 °C, aqueous with cosolvent or surfactant or cyclodextrin, thermodynamic from solid
Procedure: A dissolution study was performed on compounds 3 (commercially available—Sigma Aldrich P/N 172839 99%) 6, and 8 (Synthesis described above) at 21° C. in different buffer solutions containing a mixture of standard chromatographic solvents, e.g., acetonitrile and 20 mM aqueous […]. 20 mM aqueous ammonium bicarbonate was made by dissolving 474 mg ammonium bicarbonate in 300 mL MiliQ water.

[1] = 30% acetonitrile buffer solution, stated weight in stated buffer volume (3: 50 mL; 6: 10 mL; 8: 1.4 mL)
[2] = 10 mL acetonitrile and 90 mL 20 mM ammonium bicarbonate (10% acetonitrile)
[3] = 30 mL acetonitrile and 70 mL 20 mM ammonium bicarbonate (30% acetonitrile)
[4] = 10% acetonitrile buffer solution, stated weight in stated buffer volume (3: 180 mL; 6: 120 mL; 8: 24 mL)

| Observed Solubility [1] | solubility [2] [µg/mL] | solubility [3] [µg/mL] | Observed Solubility [4] | Observed Solubility (30% acetonitrile buffer solution, stated weight in stated buffer volume (3: 50 mL; 6: 10 mL; 8: 1.4 mL), 70 mg in 10 mL buffer) | Observed Solubility (30% acetonitrile buffer solution, stated weight in stated buffer volume (3: 50 mL; 6: 10 mL; 8: 1.4 mL), 90 mg in 10 mL buffer) | SMILES |
| --- | --- | --- | --- | --- | --- | --- |
| At 200 mg: Dissolved | ~500 (≈ 2.29 mM) | ~140000 (≈ 641 mM) |  |  |  | CCCCCCCCCOCC(O)CO (stereo not drawn) [Compound 8, 3-nonoxypropane-1,2-diol] |
| At 30 mg: Not dissolved | < 30 | < 1000 | At 6 mg: Not dissolved |  |  | CCCCCCCCCCCC(C)=O [Compound 3, reference compound] |
|  | < 50 | ~8000 (≈ 32.5 mM) | At 6 mg: Not dissolved | At 70 mg: Dissolved | At 90 mg: Not dissolved | CCCCCCCCCCCOCC(O)CO (stereo not drawn) [Compound 6, 3-(undecyloxy)-1,2-propanediol] |
